Assay results as given in PMC8839448, “Novel Pyridothienopyrimidine Derivatives: Design, Synthesis and Biological Evaluation as Antimicrobial and Anticancer Agents” (Molecules, 2022).
Converted amounts (≈) assume the structure as drawn.

Tests used:
[1] = test system: five bacterial strains; test: Antibacterial MIC, range over the panel; format: cell-based
[2] = test system: Staphylococcus aureus 25923; test: In vitro antibacterial activity, MIC by broth dilution; format: cell-based; conditions: Gram +ve bacteria, read-out: MIC S. aureus
[3] = test system: Bacillus subtilis 6633; test: as above; format: cell-based; conditions: Gram +ve bacteria, read-out: MIC B. subtilis
[4] = test system: Escherichia coli 8739; test: as above; format: cell-based; conditions: Gram −ve bacteria
[5] = test system: Bacillus cereus 33018; test: as above; format: cell-based; conditions: Gram +ve bacteria, read-out: MIC B. cereus
[6] = test system: Salmonella typhimurium 14028; test: as above; format: cell-based; conditions: Salmonella enterica, Gram −ve bacteria, read-out: MIC S. typhimurium
[7] = test system: five bacterial and five fungal strains; test: Antimicrobial MIC, range over bacterial and fungal strains; format: cell-based; conditions: for MIC range of the reference drugs: range over strains; for MIC range, antibacterial and antifungal: range over bacterial and fungal strains
[8] = test system: Aspergillus niger EM77 (KF774181); test: In vitro antifungal activity, MIC by broth dilution; format: cell-based; conditions: fungi
[9] = test system: Aspergillus flavus; test: as above; format: cell-based; conditions: fungi
[10] = test system: all the tested yeasts and fungi strains; test: Antifungal MIC, range over the panel; format: cell-based
[11] = test system: Candida albicans 10231; test: In vitro antifungal activity, MIC by broth dilution; format: cell-based; conditions: yeast, read-out: MIC C. albicans
[12] = test system: Saccharomycese cerevisiae; test: as above; format: cell-based; conditions: Saccharomyces cerevisiae, yeast, read-out: MIC S. cerevisiae
[13] = test system: Candida tropicals 750; test: as above; format: cell-based; conditions: yeast, read-out: MIC C. tropicals
[14] = test system: breast cancer (MCF-7) cells; test: Cytotoxicity, MTT assay; format: cell-based, human; conditions: Homo sapiens, MCF7, MCF7 cells, read-out: Cytotoxic activity IC50 MCF7
[15] = test system: hepatocellular carcinoma (HepG2) cells; test: Cytotoxicity, MTT assay; format: cell-based; conditions: Homo sapiens, read-out: Cytotoxic activity IC50 HepG2
[16] = Cytotoxicity against normal cells, MTT assay; conditions: human, WISH normal cells
Description: The cytotoxicity was estimated as IC50 in μM for the tested compounds and the reference drug doxorubicin, and are listed in Table 3.

[17] = target: EGFR kinase (Homo sapiens, UniProt P00533); test: In vitro EGFR kinase inhibitory assay (Kinase-Glo MAX kit); conditions: EGFR IC50, EGFR kinase assay kit, triplicate, ± SD
Chain of EGFR kinase (P00533 25-1210): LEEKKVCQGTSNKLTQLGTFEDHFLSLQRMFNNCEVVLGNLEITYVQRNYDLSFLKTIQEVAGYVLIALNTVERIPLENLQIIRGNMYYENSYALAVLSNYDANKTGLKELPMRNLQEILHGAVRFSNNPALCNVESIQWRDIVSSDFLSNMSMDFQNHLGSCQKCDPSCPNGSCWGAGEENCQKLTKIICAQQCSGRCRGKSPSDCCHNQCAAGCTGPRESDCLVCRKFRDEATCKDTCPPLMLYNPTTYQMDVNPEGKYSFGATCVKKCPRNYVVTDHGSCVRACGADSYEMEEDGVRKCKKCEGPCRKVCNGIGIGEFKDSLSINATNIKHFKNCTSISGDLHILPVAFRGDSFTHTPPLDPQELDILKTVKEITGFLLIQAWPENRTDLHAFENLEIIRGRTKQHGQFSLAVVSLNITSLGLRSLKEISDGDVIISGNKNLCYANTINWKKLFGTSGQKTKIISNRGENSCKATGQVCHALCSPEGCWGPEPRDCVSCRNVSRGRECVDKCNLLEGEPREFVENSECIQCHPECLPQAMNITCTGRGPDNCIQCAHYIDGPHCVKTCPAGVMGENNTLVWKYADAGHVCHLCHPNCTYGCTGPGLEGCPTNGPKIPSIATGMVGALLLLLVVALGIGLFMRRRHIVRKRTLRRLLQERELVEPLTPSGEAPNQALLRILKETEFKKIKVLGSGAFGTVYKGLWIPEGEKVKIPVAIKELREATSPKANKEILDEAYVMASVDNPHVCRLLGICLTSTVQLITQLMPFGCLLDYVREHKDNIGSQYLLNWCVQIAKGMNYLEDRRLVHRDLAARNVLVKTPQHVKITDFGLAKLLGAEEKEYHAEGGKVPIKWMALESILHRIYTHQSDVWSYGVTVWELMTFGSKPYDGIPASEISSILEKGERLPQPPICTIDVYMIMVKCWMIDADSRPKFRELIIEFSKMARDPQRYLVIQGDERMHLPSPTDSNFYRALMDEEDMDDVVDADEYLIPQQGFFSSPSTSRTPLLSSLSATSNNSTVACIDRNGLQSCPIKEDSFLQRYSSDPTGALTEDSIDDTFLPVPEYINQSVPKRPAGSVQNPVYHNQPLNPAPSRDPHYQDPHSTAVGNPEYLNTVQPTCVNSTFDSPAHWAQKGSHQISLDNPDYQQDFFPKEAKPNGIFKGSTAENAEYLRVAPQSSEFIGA
Protocol: The assay kit is designed to measure EGFR Kinase activity for screening applications using Kinase-Glo® MAX as a detection reagent. The luminescence was measured using a microplate reader (Infinite M200 microplate reader, Tecan, Männedorf, Switzerland) [54]. All assays were performed in triplicate and the relative inhibition (%) of inhibitors was then calculated via comparison with the control with no inhibitor.
In vitro EGFR kinase assay
The assay Kit is designed to measure EGFR Kinase
activity for screening applications using Kinase-Glo® MAX as a detection reagent
using Kinase-Glo® MAX as a detection reagent. Thaw 5x Kinase Buffer 1: ATP and
PTK substrate Poly (Glu:Tyr 4:1) (10 mg/ml) kinase was provided. Then the master
mixture was prepared: N wells x (6 μl 5x Kinase Buffer 1 + 1 µl ATP (500 µM) + 1
µl PTK substrate Poly (Glu:Tyr 4:1) (10 mg/ml)+ 17 μl water) and 25 μl of the
mixture was added to every well. The tested compounds were dissolved in DMSO,
well labeled as “Positive Control", 5 μl of the same solution of the reference drug
erlotinib and “Blank”, 5 μl of the same solution without inhibitor (Inhibitor buffer).
ml of 1x Kinase Buffer 1) was prepared by mixing 600 µl of 5x Kinase Buffer 1 with
The reaction initiated by adding 20 µl of diluted EGFR enzyme to the wells designated “Positive Control” and "Test Inhibitor Control". Incubate at 30°C for 40
minutes. Thaw Kinase-G lo Max reagent. After the 40 minute reaction, 50 µl of
Kinase-Glo Max reagent was added to each well. The plate was covered with
aluminum foil and incubate at room temperature for 15 minutes. Then the
luminescence was measured using the microplate reader (Infinite M200 microplate
reader, Tecan, Männedorf, Switzerland). All assays were performed in triplicate. The
relative inhibition (%) of inhibitors were then calculated compared to the control with
no inhibitor. Then the IC50 values and their standard deviation (SD) for the tested
compounds and the reference drug were determined in (nM).

[18] = test system: HepG2 and MCF-7 cancer cell lines; test: Cytotoxicity, MTT assay, range over both cancer cell lines; format: cell-based, human; conditions: for IC50: Homo sapiens, range over HepG2 and MCF-7, read-out: IC50 range, cytotoxic activity against both cell lines
[19] = test system: S. aureus; conditions: Figure 1, reported agents; ref [21],[22],[33],[34]; cited from earlier work
[20] = test system: HepG2 and MCF-7; conditions: Figure 1, reported agents; ref [21],[22],[33],[34]; read-out: IC50 range HepG2 and MCF-7; cited from earlier work
[21] = test system: E. coli; conditions: Figure 1, reported agents; ref [21],[22],[33],[34]; cited from earlier work
[22] = test system: B. cereus; conditions: Figure 1, reported agents; ref [21],[22],[33],[34]; cited from earlier work
[23] = test system: S. typhimurium; conditions: Figure 1, reported agents; ref [21],[22],[33],[34]; cited from earlier work

Structure (SMILES) | MIC [2] | MIC [3] | MIC [4] | MIC [5] | MIC [6] | MIC [8] | MIC [9] | MIC range against the tested yeasts and fungi strains [10] | MIC [11] | MIC [12] | MIC [13] | IC50 [14] | IC50 [15] | IC50 [16] | melting point | IC50 [17] | IC50 [18] | other results
CC1(C)S[C@@H]2[C@H](NC(=O)[C@H](N)c3ccc(O)cc3)C(=O)N2[C@H]1C(=O)O [Amoxicillin, amoxicillin trihydrate, reference compound] | 4 µg/mL | 8 µg/mL | 8 µg/mL | 16 µg/mL | 16 µg/mL |  |  |  |  |  |  |  |  |  |  |  |  | MIC range against the tested bacterial strains [1]: 4 to 16 µg/mL; MIC range of the reference drugs [7]: 4 to 16 µM
Clc1ccccc1C(c1ccccc1)(c1ccccc1)n1ccnc1 [Clotrimazole, clotrimazole, reference compound] |  |  |  |  |  | 8 µg/mL (≈ 23.2 µM) | 8 µg/mL (≈ 23.2 µM) | 4 to 16 µg/mL | 16 µg/mL (≈ 46.4 µM) | 8 µg/mL (≈ 23.2 µM) | 8 µg/mL (≈ 23.2 µM) |  |  |  |  |  |  | MIC range of the reference drugs [7]: 4 to 16 µM
Cc1cc(C)c2c(n1)sc1c(Cl)nc(Cl)nc12 [Compound 3a, 2,4-Dichloro-7,9-dimethylpyrido[3′,2′:4,5]thieno[3,2-d]pyrimidine] | 4 µg/mL (≈ 14.1 µM) | 4 µg/mL (≈ 14.1 µM) | 8 µg/mL (≈ 28.2 µM) | 8 µg/mL (≈ 28.2 µM) | 16 µg/mL (≈ 56.3 µM) | 8 µg/mL (≈ 28.2 µM) | 8 µg/mL (≈ 28.2 µM) | 4 to 16 µg/mL | 16 µg/mL (≈ 56.3 µM) | 8 µg/mL (≈ 28.2 µM) | 8 µg/mL (≈ 28.2 µM) | 7.24 ± 0.64 µM | 2.31 ± 0.35 µM | 417 ± 15.2 µM | 250 to 251 °C | 0.0173 ± 0.00024 µM |  | MIC range, antibacterial and antifungal [7]: 4 to 16 µg/mL
Cc1ccc(-c2cc(-c3ccccc3)nc3sc4c(=O)[nH]c(CN5CCOCC5)nc4c23)cc1 [Compound 5a, 2-(Morpholinomethyl)-7-phenyl-9-(p-tolyl)pyrido[3′,2′:4,5]thieno[3,2-d]pyrimidin-4(3H)-one] | 8 µg/mL (≈ 17.1 µM) | 8 µg/mL (≈ 17.1 µM) | 8 µg/mL (≈ 17.1 µM) | 16 µg/mL (≈ 34.1 µM) | 16 µg/mL (≈ 34.1 µM) | 16 µg/mL (≈ 34.1 µM) | 8 µg/mL (≈ 17.1 µM) | 4 to 16 µg/mL | 16 µg/mL (≈ 34.1 µM) | 8 µg/mL (≈ 17.1 µM) | 8 µg/mL (≈ 17.1 µM) | 2.79 ± 0.18 µM | 1.99 ± 0.09 µM | 408 ± 15.9 µM | 245 °C | 0.00966 ± 8e-05 µM | 1.17 to 2.79 µM | MIC range against the tested bacterial strains [1]: 8 to 16 µg/mL; MIC range, antibacterial and antifungal [7]: 4 to 16 µg/mL
Cc1cc(C)c2c3c(sc2n1)C(=O)NC1(CCCC1)N3 [Compound 6a, 7′,9′-Dimethyl-1′H-spiro[cyclopentane-1,2′-pyrido[3′,2′:4,5]thieno[3,2-d]pyrimidin]-4′(3′H)-one] | 32 µg/mL (≈ 111 µM) | 16 µg/mL (≈ 55.7 µM) | 32 µg/mL (≈ 111 µM) | 8 µg/mL (≈ 27.8 µM) | 16 µg/mL (≈ 55.7 µM) | 32 µg/mL (≈ 111 µM) | 64 µg/mL (≈ 223 µM) |  | 64 µg/mL (≈ 223 µM) | 32 µg/mL (≈ 111 µM) | 16 µg/mL (≈ 55.7 µM) | 77.4 ± 3.62 µM | 52.2 ± 1.45 µM |  | 245 to 246 °C |  | 12.1 to 77.4 µM | MIC range against the tested bacterial strains [1]: 8 to 32 µg/mL
Cc1cc(C)c2c3c(sc2n1)C(=O)NC1(CCCCC1)N3 [Compound 6c, 7′,9′-Dimethyl-1′H-spiro[cyclohexane-1,2′-pyrido[3′,2′:4,5]thieno[3,2-d]pyrimidin]-4′(3′H)-one] | 4 µg/mL (≈ 13.3 µM) | 4 µg/mL (≈ 13.3 µM) | 8 µg/mL (≈ 26.5 µM) | 8 µg/mL (≈ 26.5 µM) | 16 µg/mL (≈ 53.1 µM) | 8 µg/mL (≈ 26.5 µM) | 4 µg/mL (≈ 13.3 µM) | 4 to 16 µg/mL | 16 µg/mL (≈ 53.1 µM) | 16 µg/mL (≈ 53.1 µM) | 4 µg/mL (≈ 13.3 µM) | 22.2 ± 0.67 µM | 12.1 ± 0.33 µM |  | 290 to 291 °C |  | 12.1 to 77.4 µM | 
Cc1ccc(-c2cc(-c3ccccc3)nc3sc4c(c23)NC2(CCCC2)N=C4SCC(N)=O)cc1 [Compound 8b, 2-((7′-Phenyl-9′-(p-tolyl)-1′H-spiro[cyclopentane-1,2′-pyrido[3′,2′:4,5]thieno[3,2-d]pyrimidin]-4′-yl)sulfanyl)acetamide] | 4 µg/mL (≈ 8.02 µM) | 8 µg/mL (≈ 16 µM) | 8 µg/mL (≈ 16 µM) | 16 µg/mL (≈ 32.1 µM) | 16 µg/mL (≈ 32.1 µM) | 8 µg/mL (≈ 16 µM) | 8 µg/mL (≈ 16 µM) | 4 to 16 µg/mL | 8 µg/mL (≈ 16 µM) | 16 µg/mL (≈ 32.1 µM) | 16 µg/mL (≈ 32.1 µM) | 13.5 ± 0.76 µM | 2.79 ± 0.08 µM | 401 ± 17.3 µM | 148 to 149 °C | 0.03844 ± 0.00025 µM |  | 
Cc1ccc(-c2cc(-c3ccccc3)nc3sc4c(c23)NC2(CCCC2)N=C4SCC2CO2)cc1 (stereo not drawn) [Compound 9b, 4′-((Oxiran-2-ylmethyl)sulfanyl)-7′-phenyl-9′-(p-tolyl)-1′H-spiro[cyclopentane-1,2′-pyrido[3′,2′:4,5]thieno[3,2-d]pyrimidine]] | 4 µg/mL (≈ 8.04 µM) | 4 µg/mL (≈ 8.04 µM) | 4 µg/mL (≈ 8.04 µM) | 8 µg/mL (≈ 16.1 µM) | 16 µg/mL (≈ 32.1 µM) | 8 µg/mL (≈ 16.1 µM) | 8 µg/mL (≈ 16.1 µM) | 4 to 16 µg/mL | 4 µg/mL (≈ 8.04 µM) | 8 µg/mL (≈ 16.1 µM) | 4 µg/mL (≈ 8.04 µM) | 1.52 ± 0.08 µM | 1.17 ± 0.09 µM | 418 ± 14.1 µM | 120 °C | 0.00727 ± 0.00011 µM | 1.17 to 2.79 µM | Fold higher growth inhibition than doxorubicin ([18]; HepG2 and MCF-7, relative to doxorubicin): 2–3 fold; MIC range, antibacterial and antifungal [7]: 4 to 16 µg/mL
CCOC(=O)c1sc2nc(-c3ccc(OC)cc3)cc(-c3cccs3)c2c1N [III] |  |  |  |  |  |  |  |  |  |  |  |  |  |  |  |  |  | MIC S. aureus [19]: 7.80 µg/mL (≈ 19 µM); IC50 [20]: 33.2 to 34.8 µM; MIC E. coli [21]: 7.80 µg/mL (≈ 19 µM)
COc1ccc(-c2cc(-c3ccco3)nc3sc(C(N)=O)c(N=C4CCCCC4)c23)cc1 [II] |  |  |  |  |  |  |  |  |  |  |  |  |  |  |  |  |  | MIC S. aureus [19]: 15.60 µg/mL (≈ 35 µM); MIC B. cereus [22]: 15.60 µg/mL (≈ 35 µM); MIC E. coli [21]: 15.60 µg/mL (≈ 35 µM)
NC(=O)c1sc2nc(-c3ccco3)cc(-c3cccs3)c2c1N [I] |  |  |  |  |  |  |  |  |  |  |  |  |  |  |  |  |  | MIC S. typhimurium [23]: 15.60 µg/mL (≈ 45.7 µM); MIC E. coli [21]: 15.60 µg/mL (≈ 45.7 µM)
